Laboratory results reported in PubChem BioAssay (NCI).
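A five-concentration, 48-hour dose response in 96-well plates underlies each endpoint, interpolated linearly between surrounding concentrations. Here, GI50 denotes the concentration required for 50% inhibition of growth. TGI denotes the concentration required for complete inhibition of growth.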

What was measured:
Experiment in all cases: DTP human tumour cell line panel, 48 h
786-0 renal = system: 786-0 renal
A498 renal = system: A498 renal
A549 NSCLC = system: A549 NSCLC
ACHN renal = system: ACHN renal
BT-549 breast = system: BT-549 breast
CAKI-1 renal = system: CAKI-1 renal
CCRF-CEM leukemia = system: CCRF-CEM leukemia
COLO 205 colon = system: COLO 205 colon
DU-145 prostate = system: DU-145 prostate
EKVX NSCLC = system: EKVX NSCLC
HCC-2998 colon = system: HCC-2998 colon
HCT-116 colon = system: HCT-116 colon
HCT-15 colon = system: HCT-15 colon
HL-60(TB) leukemia = system: HL-60(TB) leukemia
HOP-62 NSCLC = system: HOP-62 NSCLC
HOP-92 NSCLC = system: HOP-92 NSCLC
HS 578T breast = system: HS 578T breast
HT29 colon = system: HT29 colon
K-562 leukemia = system: K-562 leukemia
KM12 colon = system: KM12 colon
LOX IMVI melanoma = system: LOX IMVI melanoma
M14 melanoma = system: M14 melanoma
MALME-3M melanoma = system: MALME-3M melanoma
MCF7 breast = system: MCF7 breast
MDA-MB-231 breast = system: MDA-MB-231 breast
MDA-MB-435 = system: MDA-MB-435
MOLT-4 leukemia = system: MOLT-4 leukemia
NCI-H226 lung = system: NCI-H226 lung

CC(=O)O[C@H]([C@H](OC(C)=O)[C@H](C)OC(C)=O)[C@@H](/C=C/[C@H]1CC=CC(=O)O1)OC(C)=O
GI50 (786-0 renal): 97.3 µM | TGI (786-0 renal): > 100 µM | GI50 (A498 renal): 41.4 µM | TGI (A498 renal): > 100 µM | GI50 (A549 NSCLC): > 100 µM | TGI (A549 NSCLC): > 100 µM | GI50 (ACHN renal): > 100 µM | TGI (ACHN renal): > 100 µM | GI50 (BT-549 breast): 21.9 µM | TGI (BT-549 breast): 72.6 µM | GI50 (CAKI-1 renal): 79.7 µM | TGI (CAKI-1 renal): > 100 µM | GI50 (CCRF-CEM leukemia): 36.7 µM | TGI (CCRF-CEM leukemia): > 100 µM | GI50 (COLO 205 colon): 37.1 µM | TGI (COLO 205 colon): > 100 µM | GI50 (DU-145 prostate): 38.2 µM | TGI (DU-145 prostate): > 100 µM | GI50 (EKVX NSCLC): > 100 µM | TGI (EKVX NSCLC): > 100 µM | GI50 (HCC-2998 colon): 24.1 µM | TGI (HCC-2998 colon): 68.9 µM | GI50 (HCT-116 colon): 33 µM | TGI (HCT-116 colon): > 100 µM | GI50 (HCT-15 colon): 44.9 µM | TGI (HCT-15 colon): > 100 µM | GI50 (HL-60(TB) leukemia): 59.4 µM | TGI (HL-60(TB) leukemia): > 100 µM | GI50 (HOP-62 NSCLC): 48.5 µM | TGI (HOP-62 NSCLC): > 100 µM | GI50 (HOP-92 NSCLC): 23.5 µM | TGI (HOP-92 NSCLC): 62.4 µM | GI50 (HS 578T breast): 65.5 µM | TGI (HS 578T breast): > 100 µM | GI50 (HT29 colon): 55.8 µM | TGI (HT29 colon): > 100 µM | GI50 (K-562 leukemia): > 100 µM | TGI (K-562 leukemia): > 100 µM | GI50 (KM12 colon): > 100 µM | TGI (KM12 colon): > 100 µM | GI50 (LOX IMVI melanoma): 55.1 µM | TGI (LOX IMVI melanoma): > 100 µM | GI50 (M14 melanoma): 67.3 µM | TGI (M14 melanoma): > 100 µM | GI50 (MALME-3M melanoma): > 100 µM | TGI (MALME-3M melanoma): > 100 µM | GI50 (MCF7 breast): 39 µM | TGI (MCF7 breast): > 100 µM | GI50 (MDA-MB-231 breast): > 100 µM | TGI (MDA-MB-231 breast): > 100 µM | GI50 (MDA-MB-435): 41.2 µM | TGI (MDA-MB-435): > 100 µM | GI50 (MOLT-4 leukemia): 72.7 µM | TGI (MOLT-4 leukemia): > 100 µM | GI50 (NCI-H226 lung): > 100 µM | TGI (NCI-H226 lung): > 100 µM
